Laboratory results published in patent publication US20250042886A1, “BIS(HETERO)ARYL THIOETHER OXADIAZINES AS FUNGICIDAL COMPOUNDS” (Bayer Aktiengesellschaft, priority 2021, published 2025).

Tests used:
Pyricularia oryzae = experiment: microbe, parasite or virus in culture; format: cell-based; details: 120 h; for inhibition at 20 ppm: read-out: efficacy (inhibition of fungal growth), 20 ppm of active ingredient, liquid culture, 5 days incubation
[1] = test system: Colletotrichum lindemuthianum; experiment: In vivo preventive test on Colletotrichum lindemuthianum (leaf spot on bean); details: 168 h, 500 ppm of active ingredient, sprayed on young bean plants 24 h before inoculation, evaluated 7 days after inoculation, read-out: efficacy
Method in brief: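 Young bean plants sprayed preventively with compound in DMSO/acetone/Tween 80 diluted in water; controls got solvent mix only. After 24 hours, leaves sprayed with an aqueous spore suspension of C. lindemuthianum.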

Alternaria brassicae = experiment: In vivo preventive test on Alternaria brassicae (leaf spot on radish or cabbage); details: 500 ppm of active ingredient, sprayed on young radish or cabbage plants 24 h before inoculation, evaluated 3 to 4 days after inoculation, read-out: efficacy
Method in brief: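 Young radish or cabbage plants sprayed preventively with compound formulated in DMSO/acetone/Tween 80 and diluted in water; vehicle-treated plants as controls. Leaves inoculated by spraying an aqueous Alternaria brassicae spore suspension 24 h after treatment.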

Botrytis cinerea = experiment: In vivo preventive test on Botrytis cinerea (grey mould); details: 500 ppm of active ingredient, sprayed on young gherkin or cabbage plants 24 h before inoculation, evaluated 4 to 5 days after inoculation, read-out: efficacy
Method in brief: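 Compounds in DMSO/acetone/Tween 80 were diluted in water and sprayed onto young gherkin or cabbage plants; controls got solvent only. After 24 h, leaves were sprayed with an aqueous Botrytis cinerea spore suspension.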

Fusarium culmorum = Fusarium culmorum in vitro cell test; format: cell-based; details: 120 h, liquid culture, 5 days incubation, read-out: efficacy (inhibition of fungal growth); for inhibition at 20 ppm: 20 ppm of active ingredient
Method in brief: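 Spores in liquid mineral-salts/saccharose medium exposed to compounds (DMSO ≤1% final) for 5 days. Mycelium growth measured spectrometrically, with inhibition derived from absorbance relative to fungicide-free control wells.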

Sphaerotheca fuliginea = experiment: In vivo preventive test on Sphaerotheca fuliginea (powdery mildew on cucurbits); details: Podosphaera fuliginea, 192 h; 500 ppm of active ingredient, sprayed on young gherkin plants 24 h before inoculation; evaluated 8 days after inoculation; read-out: efficacy
Method: B-3. […] The active ingredients were made soluble and homogenized in a mixture of Dimethyl sulfoxide/Acetone//Tween® 80 and then diluted in water to the desired concentration. The young plants of gherkin were treated by spraying the active ingredient prepared as described above. Control plants were treated only with an aqueous solution of Acetone/Dimethyl sulfoxide/Tween® 80. After 24 hours, the plants were contaminated by spraying the leaves with an aqueous suspension of Sphaerotheca fuliginea spores.

| Structure (SMILES) | inhibition at 20 ppm (Pyricularia oryzae) | pest or weed control at 500 ppm [1] | pest or weed control at 500 ppm (Alternaria brassicae) | pest or weed control at 500 ppm (Botrytis cinerea) | inhibition at 20 ppm (Fusarium culmorum) | pest or weed control at 500 ppm (Sphaerotheca fuliginea) | inhibition at 50 µM (Pyricularia oryzae; read-out: efficacy (inhibition of fungal growth), 50 μMol/l of active ingredient, liquid culture, 5 days incubation) | inhibition at 50 µM (Fusarium culmorum; 50 μMol/l of active ingredient) |
| --- | --- | --- | --- | --- | --- | --- | --- | --- |
| Cc1ccc(C[C@H]2CON=C(c3c(Sc4cccc(C(F)(F)F)c4)cnc4ccccc34)N2)c(C)c1 (racemic) [Compound I-030] | 90 to 100% | 90 to 100% | 70 to 79% | 90 to 100% | 90 to 100% |  |  |  |
| Cc1cccc(Sc2cnc(C)nc2C2=NOC[C@@H](Cc3ccc(C)cc3C)N2)c1 (racemic) [Compound I-032] | 70 to 79% | 90 to 100% | 90 to 100% | 90 to 100% | 80 to 89% | 90 to 100% |  |  |
| FC(F)(F)c1cccc(Sc2cnc(Cl)cc2C2=NOC[C@@H](Cc3ccc(Cl)cc3Cl)N2)c1 (racemic) [Compound I-022] | 80 to 89% | 90 to 100% | 80 to 89% | 90 to 100% | 90 to 100% | 90 to 100% |  |  |
| Cc1ccc(C[C@@H]2CON=C(c3nc(C)ncc3Sc3cccc(Cl)c3)N2)c(Cl)c1 (racemic) [Compound I-033] |  | 90 to 100% | 80 to 89% | 90 to 100% | 90 to 100% | 90 to 100% |  |  |
| Cc1ccc(C[C@@H]2CON=C(c3c(Sc4cccc(C(F)(F)F)c4)nnc4ccccc34)N2)c(C)c1 (racemic) [Compound I-029] | 90 to 100% | 70 to 79% | 80 to 89% | 90 to 100% | 80 to 89% |  |  |  |
| Cc1ccc(C[C@@H]2CON=C(c3nc(C)ncc3Sc3cccc(Cl)c3)N2)c(C)c1 (racemic) [Compound I-031] |  | 90 to 100% | 90 to 100% | 90 to 100% | 90 to 100% | 90 to 100% |  |  |
| Cc1cc([C@@H]2CON=C(c3c(Sc4cccc(Cl)c4)nnc(C)c3C)N2)c(C)s1 (racemic) [Compound I-100] |  | 90 to 100% | 90 to 100% | 90 to 100% |  |  | 90 to 100% | 90 to 100% |
| Cc1cccc(Sc2cnc3ccccc3c2C2=NOC[C@H](Cc3ccc(C)cc3C)N2)c1 (racemic) [Compound I-023] | 90 to 100% | 70 to 79% | 90 to 100% | 90 to 100% | 90 to 100% |  |  |  |
